Experimental data from doi:10.1101/2022.11.22.517505v1 (biorxiv, 2022).

How the values were obtained:
GSK3B [1] = target: T1, GSK3B (Homo sapiens, UniProt P49841); test: HotSpot radiometric […]-ATP kinase assay; type: biochemical
PLK2 [2] = target: T2, PLK2 (Homo sapiens, UniProt Q9NYY3); test: biochemical; settings: read-out: % of control remaining
GSK3A [3] = target: T3, GSK3A (Homo sapiens, UniProt P49840); test: HotSpot radiometric […]-ATP kinase assay; type: biochemical
Target sequence in this assay (P49840 2-483): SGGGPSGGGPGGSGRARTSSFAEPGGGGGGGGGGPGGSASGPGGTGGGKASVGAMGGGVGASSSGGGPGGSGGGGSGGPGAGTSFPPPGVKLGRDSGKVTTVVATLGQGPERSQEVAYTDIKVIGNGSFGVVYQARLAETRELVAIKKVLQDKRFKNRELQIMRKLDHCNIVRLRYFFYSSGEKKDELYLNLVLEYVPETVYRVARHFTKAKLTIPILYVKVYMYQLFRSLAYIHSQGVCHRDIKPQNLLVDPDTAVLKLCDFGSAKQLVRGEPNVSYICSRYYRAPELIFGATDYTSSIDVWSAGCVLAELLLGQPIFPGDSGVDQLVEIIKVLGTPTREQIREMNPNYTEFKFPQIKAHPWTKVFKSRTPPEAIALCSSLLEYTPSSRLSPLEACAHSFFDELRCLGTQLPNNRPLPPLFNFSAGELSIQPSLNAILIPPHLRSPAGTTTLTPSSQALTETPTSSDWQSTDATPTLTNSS

CSNK1E = CSNK1E (Homo sapiens, UniProt P49674); test: biochemical; settings: read-out: % of control remaining
Chain of CSNK1E (P49674 whole entry, the tested form may be a part): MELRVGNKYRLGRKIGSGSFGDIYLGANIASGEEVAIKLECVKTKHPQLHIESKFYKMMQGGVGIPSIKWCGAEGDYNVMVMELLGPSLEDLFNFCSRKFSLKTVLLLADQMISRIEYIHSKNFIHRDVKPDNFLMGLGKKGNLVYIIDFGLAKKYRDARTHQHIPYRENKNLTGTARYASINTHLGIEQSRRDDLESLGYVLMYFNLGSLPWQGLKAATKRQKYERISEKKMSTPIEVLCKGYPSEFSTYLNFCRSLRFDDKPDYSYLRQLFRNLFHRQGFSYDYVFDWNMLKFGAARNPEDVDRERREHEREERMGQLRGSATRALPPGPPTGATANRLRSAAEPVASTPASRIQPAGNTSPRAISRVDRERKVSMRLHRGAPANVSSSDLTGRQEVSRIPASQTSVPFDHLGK

[4] = target: PLK2 (NanoLuc fusion, HEK293 cells) (Homo sapiens, UniProt Q9NYY3); test: NanoBRET target engagement, tracer displacement, intact cells; type: cell-based
Chain of PLK2 (NanoLuc fusion, HEK293 cells) (Q9NYY3 whole entry, the tested form may be a part): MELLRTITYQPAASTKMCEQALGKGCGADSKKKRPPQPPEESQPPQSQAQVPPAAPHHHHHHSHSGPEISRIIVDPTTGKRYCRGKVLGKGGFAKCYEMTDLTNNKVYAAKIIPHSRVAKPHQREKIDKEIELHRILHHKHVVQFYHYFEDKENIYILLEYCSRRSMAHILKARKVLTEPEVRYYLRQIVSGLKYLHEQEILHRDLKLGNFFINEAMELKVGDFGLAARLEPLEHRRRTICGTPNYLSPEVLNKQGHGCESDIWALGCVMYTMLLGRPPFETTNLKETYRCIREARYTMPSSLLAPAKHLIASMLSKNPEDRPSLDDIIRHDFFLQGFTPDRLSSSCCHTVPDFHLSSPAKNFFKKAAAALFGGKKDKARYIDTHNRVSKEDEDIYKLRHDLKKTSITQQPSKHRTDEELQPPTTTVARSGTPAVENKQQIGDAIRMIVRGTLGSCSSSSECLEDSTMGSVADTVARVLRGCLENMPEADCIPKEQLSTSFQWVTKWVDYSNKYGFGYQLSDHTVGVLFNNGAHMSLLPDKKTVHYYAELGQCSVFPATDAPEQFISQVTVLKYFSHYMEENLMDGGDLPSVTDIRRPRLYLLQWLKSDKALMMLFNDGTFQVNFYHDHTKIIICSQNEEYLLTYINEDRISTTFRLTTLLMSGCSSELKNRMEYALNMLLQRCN

PLK2 [5] = target: T2, PLK2; test: HotSpot radiometric […]-ATP kinase assay; type: biochemical
GSK3B [6] = target: T1, GSK3B; test: biochemical; settings: read-out: % of control remaining
[7] = target: GSK3A (NanoLuc fusion, HEK293 cells) (Homo sapiens, UniProt P49840); test: NanoBRET target engagement, tracer displacement, intact cells; type: cell-based
Chain of GSK3A (NanoLuc fusion, HEK293 cells) (P49840 2-483): as the sequence (P49840 2-483) above

GSK3A [8] = target: T3, GSK3A; test: biochemical; settings: read-out: % of control remaining
Target sequence in this assay (P49840 whole entry): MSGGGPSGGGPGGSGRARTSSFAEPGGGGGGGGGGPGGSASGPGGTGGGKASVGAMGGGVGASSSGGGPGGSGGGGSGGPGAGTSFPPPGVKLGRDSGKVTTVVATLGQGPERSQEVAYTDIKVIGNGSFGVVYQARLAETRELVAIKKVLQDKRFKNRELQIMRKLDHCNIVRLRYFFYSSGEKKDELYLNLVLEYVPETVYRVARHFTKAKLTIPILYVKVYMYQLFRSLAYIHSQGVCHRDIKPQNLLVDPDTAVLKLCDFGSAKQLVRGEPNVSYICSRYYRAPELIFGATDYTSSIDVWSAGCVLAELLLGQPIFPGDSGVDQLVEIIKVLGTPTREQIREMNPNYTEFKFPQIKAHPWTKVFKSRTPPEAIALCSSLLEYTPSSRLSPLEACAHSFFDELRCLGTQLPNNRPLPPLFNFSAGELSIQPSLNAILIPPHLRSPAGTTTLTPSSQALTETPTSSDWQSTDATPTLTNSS

PARP1 = PARP1 (Homo sapiens, UniProt P09874); test: BPS PARP assay kit, biotin-NAD+ luminescence; type: biochemical; settings: read-out: % inhibition at 10 μM
Chain of PARP1 (P09874 2-1014): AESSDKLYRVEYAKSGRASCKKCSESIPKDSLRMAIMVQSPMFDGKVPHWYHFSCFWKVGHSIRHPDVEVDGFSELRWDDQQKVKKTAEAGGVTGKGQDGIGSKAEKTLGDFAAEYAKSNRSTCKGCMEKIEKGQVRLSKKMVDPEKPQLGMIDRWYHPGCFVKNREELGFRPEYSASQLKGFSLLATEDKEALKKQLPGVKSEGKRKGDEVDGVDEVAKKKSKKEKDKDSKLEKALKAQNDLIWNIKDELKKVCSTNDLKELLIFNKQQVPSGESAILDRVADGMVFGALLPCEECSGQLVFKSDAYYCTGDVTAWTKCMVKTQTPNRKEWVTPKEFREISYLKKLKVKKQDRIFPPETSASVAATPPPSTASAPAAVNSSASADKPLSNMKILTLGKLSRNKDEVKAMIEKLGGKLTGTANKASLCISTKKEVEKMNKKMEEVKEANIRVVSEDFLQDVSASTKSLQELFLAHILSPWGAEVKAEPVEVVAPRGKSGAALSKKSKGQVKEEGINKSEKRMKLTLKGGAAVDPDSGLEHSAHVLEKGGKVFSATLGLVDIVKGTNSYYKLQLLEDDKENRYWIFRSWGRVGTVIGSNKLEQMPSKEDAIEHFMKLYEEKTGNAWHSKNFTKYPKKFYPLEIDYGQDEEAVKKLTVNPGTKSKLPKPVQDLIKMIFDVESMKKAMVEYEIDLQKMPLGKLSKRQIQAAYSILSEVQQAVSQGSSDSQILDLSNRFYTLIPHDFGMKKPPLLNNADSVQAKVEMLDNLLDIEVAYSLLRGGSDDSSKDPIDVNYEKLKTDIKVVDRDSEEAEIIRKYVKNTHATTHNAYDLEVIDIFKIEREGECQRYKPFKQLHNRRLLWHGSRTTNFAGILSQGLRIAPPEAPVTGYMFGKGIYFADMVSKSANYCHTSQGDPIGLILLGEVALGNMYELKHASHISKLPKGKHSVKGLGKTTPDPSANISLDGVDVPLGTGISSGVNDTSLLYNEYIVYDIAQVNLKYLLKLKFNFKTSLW

PARP2 = PARP2 (Homo sapiens, UniProt Q9UGN5); test: BPS PARP assay kit, biotin-NAD+ luminescence; type: biochemical; settings: read-out: % inhibition at 10 μM
Chain of PARP2 (Q9UGN5 whole entry): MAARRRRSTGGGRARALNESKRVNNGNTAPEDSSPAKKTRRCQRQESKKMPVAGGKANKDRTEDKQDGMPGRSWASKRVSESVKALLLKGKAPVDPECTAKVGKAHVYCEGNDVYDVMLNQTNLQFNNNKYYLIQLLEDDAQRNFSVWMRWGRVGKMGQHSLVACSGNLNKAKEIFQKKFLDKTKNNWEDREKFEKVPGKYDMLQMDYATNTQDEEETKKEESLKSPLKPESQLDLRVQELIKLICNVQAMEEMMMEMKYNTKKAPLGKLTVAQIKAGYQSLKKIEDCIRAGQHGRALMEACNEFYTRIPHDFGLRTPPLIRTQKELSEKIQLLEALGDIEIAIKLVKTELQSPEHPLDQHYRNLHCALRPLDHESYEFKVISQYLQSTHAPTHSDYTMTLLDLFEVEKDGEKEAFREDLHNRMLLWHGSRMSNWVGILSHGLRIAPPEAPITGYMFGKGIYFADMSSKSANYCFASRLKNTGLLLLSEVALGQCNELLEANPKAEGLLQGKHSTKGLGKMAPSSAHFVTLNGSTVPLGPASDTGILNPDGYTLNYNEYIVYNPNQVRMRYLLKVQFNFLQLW

GSK3A [9] = target: T3, GSK3A; test: HotSpot radiometric […]-ATP kinase assay; type: biochemical; settings: remaining activity, mean of two replicates
Target sequence in this assay (P49840 2-483): as the sequence (P49840 2-483) above

PLK2 [10] = target: T2, PLK2; test: HotSpot radiometric […]-ATP kinase assay; type: biochemical; settings: remaining activity, mean of two replicates
GSK3B [11] = target: T1, GSK3B; test: HotSpot radiometric […]-ATP kinase assay; type: biochemical; settings: remaining activity, mean of two replicates

T2 sequence (Q9NYY3 whole entry): as the sequence (Q9NYY3 whole entry, the tested form may be a part) above
T1 sequence (P49841 whole entry): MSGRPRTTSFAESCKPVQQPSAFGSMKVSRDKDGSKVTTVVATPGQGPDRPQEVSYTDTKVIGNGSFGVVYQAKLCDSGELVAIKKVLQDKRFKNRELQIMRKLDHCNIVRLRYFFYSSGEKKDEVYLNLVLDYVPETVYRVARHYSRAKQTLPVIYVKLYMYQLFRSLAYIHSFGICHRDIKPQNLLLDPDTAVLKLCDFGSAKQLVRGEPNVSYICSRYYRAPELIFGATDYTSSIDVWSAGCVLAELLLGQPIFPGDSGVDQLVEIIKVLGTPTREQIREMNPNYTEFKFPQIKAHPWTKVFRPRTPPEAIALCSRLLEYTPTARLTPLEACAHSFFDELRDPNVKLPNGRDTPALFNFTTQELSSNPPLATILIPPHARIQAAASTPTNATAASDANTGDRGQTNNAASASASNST

| IC50 (GSK3B [1]) | remaining activity at 1 µM (PLK2 [2]) | IC50 (GSK3A [3]) | remaining activity at 1 µM (CSNK1E) | EC50 [4] | IC50 (PLK2 [5]) | remaining activity at 1 µM (GSK3B [6]) | EC50 [7] | remaining activity at 1 µM (GSK3A [8]) | inhibition at 10 µM (PARP1) | inhibition at 10 µM (PARP2) | Enzyme activity (%) at 1 μM (GSK3A [9]) | Enzyme activity (%) at 1 μM (PLK2 [10]) | Enzyme activity (%) at 1 μM (GSK3B [11]) | Compound |
| --- | --- | --- | --- | --- | --- | --- | --- | --- | --- | --- | --- | --- | --- | --- |
| 2000 nM | 40.7% | 579 nM | 102% | 5.08 µM | 591 nM | 63.1% | 15 µM | 34.4% | 100% | 100% | – | – | – | O=C(O)c1ccc(-c2[nH]c3cc(F)cc4c3c2CCNC4=O)cc1 [M324] |
| – | – | – | 103% | – | – | – | – | – | – | – | 74.15% | 88.95% | 35.38% | CNCc1ccc(-c2[nH]c3cc(F)cc4c3c2CCNC4=O)cc1 [rucaparib] |
